Data published in patent US4782076A, “Substituted 2,3,4,9-tetrahydro-1H-carbazole-1-acetic acid derivatives, composition and use” (American Home Products Corporation, priority 1988, dated 1988).

Columns and labels:
[1] = tested on: phenylbenzoquinone-induced writhing in mice; assay: Phenylbenzoquinone-induced writhing in mice (Phenylquinone Writhing in Mice); assay type: in vivo, Male Swiss albino mice; conditions: 60 min before PBQ i.p.
Procedure: A further test used to determine the utility of the compounds of the present invention is designated: DRUG EFFECTS ON PHENYLBENZOQUINONE-INDUCED WRITHING IN MICE
The objective of this test is to determine the ability of test drugs to inhibit the nociceptive (pain) response of mice injected with a chemical irritant. This test is a primary screen for both peripheral and centrally acting analgesic drugs.
Male Swiss albino mice (15-25 g) are used. The animals are fasted for 18 hours prior to use but have free access to water.
(§1) Drug Preparation and Administration:
Drugs are dissolved or suspended according to their solubility in 0.5% Tween 80 in distilled water. They are administered by gastric lavage in a volume of 5 mL/kg. […]
A modification of the method of Siegmund et al, Proc. Soc. […] The number of writhing or abdominal squirming movements made by each mouse during the following 15 minute period is counted. The experiment is repeated with another group of 5 mice and the mean number of writhes per mouse for a group of 10 mice is calculated.
Drug treated and vehicle-treated control groups are compared and the percentage inhibition of writhing conferred by the drug is calculated: [formula] where c=mean number of writhes in the control group, and where t=mean number of writhes in the test drug group.

[2] = tested on: reaction of rats to painful stimulation applied to an inflamed paw; assay: Paw pressure test in the rat; assay type: in vivo, Male Sprague Dawley rats; conditions: po, 24 hours after Freund's adjuvant, pain threshold 1 hour later, dose which causes analgesia in 50% of the animals
Excerpt: A still further test used to determine the utility of the compounds of the present invention is designated: PAW PRESSURE TEST IN THE RAT
The objective of this test is to assess the potency of peripheral and central acting drugs in inhibiting the reaction of rats to painful stimulation applied to an inflamed paw.
Male Sprague Dawley rats (180-200 g) are used. The animals are fasted overnight prior to drug administration.
as §1
(§2) Freund's Complete Adjuvant (FCA) is prepared by suspending 5 mg killed and dried Mycobacterium butyricum (Difco) in 1 mL liquid paraffin. The test compounds are dissolved or susended in 0.5% Tween 80 in distilled water according to their solubility. They are administered by gastric gavage in a volume of 0.5 mL/100 g body weight to groups of 10 animals.
Ten rats are used per group. The method is essentially that described by Randall et al, Arch. Int. Pharmacodyn. […] The force is continuously monitored by a pointer moving along a linear scale and is measured in grams. […] The pain threshold is determined 1 hour later in the inflamed paw and the normal paw of the treated and control groups. […]
Each animal which has a reading 1.5 times greater than the mean reading of the control-group will be considered as responsive to treatment. The number of animals showing an analgesic effect is then determined in each group. […]

[3] = tested on: Freund's complete adjuvant-induced hind paw edema in rats; assay: Preventive adjuvant edema in rats (Preventative Adjuvant Edema); assay type: in vivo, Male Sprague Dawley rats; conditions: 25 mg/kg, p.o., day 0, 1 and 2; edema measured day 3
Procedure: This test is a primary screen for anti-inflammatory drugs.
Male Sprague Dawley rats (180-200 g) are used. The animals have free access to water but food is withdrawn 18 hours before testing.
Drug Preparations and Administration:
as §2, with “complete adjuvant” for “Complete Adjuvant (FCA)”, “dissolved in distilled water” for “dissolved”, “suspended” for “susended”, “For primary screening all drugs” for “They”, “lavage at the arbitrary dosage of 25 mg/kg, p.o.” for “gavage”
The method is essentially that described by Wax et al, J. Pharmacol. Exp. Ther., 192, 166-171 (1975). Groups of rats are injected intradermally in the left hind paw with 0.1 mL of Freund's complete adjuvant. […] The injected hind paw volume is measured before the injection of adjuvant and 24 hours after the last drug administration (day 3) by means of a plethysmometer (Buxco Electronics Inc.). […]
The mean edema volume (expressed in mL±SEM) is calculated for each group and the percentage inhibition of inflammation conferred by the drug is calculated: [formula] where c is the mean edema volume for the untreated controls and t is the means edema volume for the drug treated group.

Row | SMILES | ED50 ([1]; Mus musculus, po) [mg/kg] | ED50 [2] [mg/kg] | % Inhibition [3] [%] | % Inhibition ([1]; 25 mg/kg, p.o.) [%]
1 | C#CCC1CCC(CC)(CC(=O)O)c2[nH]c3c(CC)cccc3c21 (single isomer, unassigned; isomer a) [Example 1, 1,8-Diethyl-2,3,4,9-tetrahydro-4-(2-propynyl)-1H-carbazole-1-acetic Acid Isomer A] | 6.6 | 0.38 | 51 | –
2 | C#CCC1CCC(CC)(CC(=O)O)c2[nH]c3c(CC)cccc3c21 (single isomer, unassigned; isomer b) [Example 2, 1,8-Diethyl-2,3,4,9-tetrahydro-4-(2-propynyl)-1H-carbazole-1-acetic Acid Isomer B] | – | – | 36 | 8
